Data from US9521846B2, “Template-fixed peptidomimetics with antimicrobial activity” (priority 2006, dated 2016).
≈ marks a conversion by molar mass, not a printed value. Non-standard residues stand in square brackets, D forms with d. Residues, ends and D or L forms follow the SMILES beside them. dDab = NCC[C@@H](N)C(=O)O; Orn = NCCC[C@H](N)C(=O)O; Dab = NCC[C@H](N)C(=O)O

Legend:
P. aeruginosa ATCC 27853 = assay type: cell-based, Pseudomonas aeruginosa; settings: ATCC 27853
Procedure: (§1) The selective antimicrobial activities of the peptides were determined in 96-well plates (Nunclon polystyrene) by the standard NCCLS broth microdilution method (see ref 1, below) with slight modifications. Innocula of the microorganisms were diluted into Mueller-Hinton (MH) broth+0.02% BSA and compared with a 0.5 Mcfarland standard to give appr. 10^6 colony forming units (CFU)/ml. Aliquots (50 μl) of inoculate were added to 50 μl of MH broth+0.02% BSA containing the peptide in serial two-fold dilutions. The following microorganisms were used to determine antibiotic selectivity of the peptides: Escherichia coli (ATCC 25922), Pseudomonas aeruginosa (P. aeruginosa ATCC 27853, P8191900, P1021903, P1021913, IMP 1 Livermore 3140).

HELA cells (Acc57) = assay: Cytotoxicity assay, MTT reduction (LC 50, GI 50); assay type: cell-based
Procedure: The cytotoxicity of the peptides to HELA cells (Acc57) and COS-7 cells (CRL-1651) was determined using the MIT reduction assay [see ref. 2 and 3, below]. Briefly the method was as follows: HELA cells and COS-7 cells were seeded at 7.0×10^3 and, respectively, 4.5×10^3 cells per well and grown in 96-well […] plates for 24 hours at 37° C. at 5% CO2. At this point, time zero (Tz) was determined by MTT reduction (see below). The supernatant of the remaining wells was discarded, and fresh medium and the peptides in serial dilutions of 12.5, 25 and 50 μM were dispensed into the wells. Each peptide concentration was assayed in triplicate. Incubation of the cells was continued for 48 hours at 37° C. at 5% CO2. Wells were then washed once with phosphate buffered saline (PBS) and subsequently 100 μl MIT reagent (0.5 mg/ml in medium RPMI1640 and, respectively, DMEM) were added to the wells. This was incubated at 37° C. for 2 hours and subsequently the medium was aspirated and 100 μl isopropanol were added to each well. The absorbance at 595 nm of the solubilized product was measured (OD595peptide). For each concentration averages were calculated from triplicates. The percentage of growth was calculated as follows: (OD595peptide-OD595Tz-OD595Empty well)/(OD595Tz-OD595Empty well)×100% and was plotted for each peptide concentration.
The LC 50 values (Lethal Concentration, defined as the concentration that kills 50% of the cells) were determined for each peptide by using the trend line function of EXCEL (Microsoft Office 2000) for the concentrations (50, 25, 12.5 and 0 μM), the corresponding growth percentages and the value −50, (=TREND(C50:C0,%50:%0,−50)). The GI 50 (Growth Inhibition) concentrations were calculated for each peptide by using a trend line function for the concentrations (50, 25, 12.5 and 0 […]), the corresponding percentages and the value 50, (=TREND (C50:C0,%50:%0,50).

[1] = tested on: human red blood cells (hRBC); assay: Hemolysis; assay type: cell-based; settings: 100
Procedure: Hemolysis of red blood cells is often employed for assessment of toxicity of related compounds such as protegrin or tachyplesin. Values are given as %-lysis of red blood cells observed at a concentration of 100 μg/ml. Typical values determined for cationic peptides such as protegrin and tachyplesin range between 30-40% with average MIC-values of 1-5 μg/ml over a wide range of pathogens.
The peptides were tested for their hemolytic activity against human red blood cells (hRBC). Fresh hRBC were washed three times with phosphate buffered saline (PBS) by centrifugation for 10 min at 2000×g. Peptides at a concentration of 100 μM were incubated with 20% v/v hRBC for 1 hour at 37° C. The final erythrocyte concentration was approximately 0.9×10^9 cells per ml. A value of 0% and, respectively, 100% cell lysis was determined by incubation of the hRBC in the presence of PBS alone and, respectively, 0.1% Triton X-100 in H2O. The samples were centrifuged, the supernatant was 20-fold diluted in PBS buffer and the optical density (OD) of the sample at […] was measured. The 100% lysis value (OD540H20) gave an OD540 of approximately 1.3-1.8. Percent hemolysis was calculated as follows: (OD540peptide/OD540H20)×100%.

[2] = tested on: Pseudomonas aeruginosa P1021903; assay type: cell-based; settings: P1021903
Procedure: as §1

[3] = tested on: Pseudomonas aeruginosa P1021913; assay type: cell-based; settings: P1021913
Procedure: as §1

[4] = tested on: Pseudomonas aeruginosa P8191900; assay type: cell-based; settings: P8191900
Procedure: as §1

[5] = tested on: Pseudomonas aeruginosa IMP 1 Livermore 3140; assay type: cell-based; settings: IMP 1 Livermore 3140
Procedure: as §1

| SMILES | MIC P. aeruginosa ATCC 27853 (P. aeruginosa ATCC 27853) | Cytotoxicity GI50 Hela cells (HELA cells (Acc57)) | Average MIC (P. aeruginosa) | Hemolysis at 100 μg/ml [1] | MIC P. aeruginosa P1021903 [2] | MIC P. aeruginosa P1021913 [3] | MIC P. aeruginosa P8191900 [4] | MIC P. aeruginosa IMP1 Livermore 3140 [5] |
| --- | --- | --- | --- | --- | --- | --- | --- | --- |
| CC[C@H](C)[C@@H]1NC(=O)[C@H](Cc2c[nH]c3ccccc23)NC(=O)[C@H]([C@@H](C)O)NC(=O)[C@@H]2CCCN2C(=O)[C@H]2CCCN2C(=O)[C@H](CCN)NC(=O)[C@H](C)NC(=O)[C@H](CCN)NC(=O)[C@H](CCN)NC(=O)[C@H](Cc2c[nH]c3ccccc23)NC(=O)[C@H](CCN)NC(=O)[C@@H](CCN)NC(=O)[C@H](CCCN)NC(=O)[C@H](CCN)NC1=O [Example 48] (cyclo(TWI[Dab][Orn][dDab][Dab]W[Dab][Dab]A[Dab][dP]P)) | 0.02 µg/mL (≈ 0.0128 µM) | 50 µM | 0.08 µg/mL | 0.2% | 0.02 µg/mL (≈ 0.0128 µM) | 0.13 µg/mL (≈ 0.083 µM) | 0.03 µg/mL (≈ 0.0191 µM) | 0.19 µg/mL (≈ 0.121 µM) |
| CC[C@H](C)[C@@H]1NC(=O)[C@H](Cc2ccc(O)cc2)NC(=O)[C@H](CC(=O)O)NC(=O)[C@@H]2CCCN2C(=O)[C@H]2CCCN2C(=O)[C@H](CCN)NC(=O)[C@H](C)NC(=O)[C@H](CCN)NC(=O)[C@H](CCN)NC(=O)[C@H](Cc2c[nH]c3ccccc23)NC(=O)[C@H](CCN)NC(=O)[C@@H](CCN)NC(=O)[C@H](CCCN)NC(=O)[C@H](CCN)NC1=O [Example 43] (cyclo(DYI[Dab][Orn][dDab][Dab]W[Dab][Dab]A[Dab][dP]P)) | 0.13 µg/mL (≈ 0.0834 µM) | 50 µM | 0.95 µg/mL | 0.5% | 0.125 µg/mL (≈ 0.0802 µM) | 2.00 µg/mL (≈ 1.28 µM) | 0.50 µg/mL (≈ 0.321 µM) | 2.00 µg/mL (≈ 1.28 µM) |
| CC[C@H](C)[C@@H]1NC(=O)[C@H](Cc2c[nH]c3ccccc23)NC(=O)[C@H]([C@@H](C)O)NC(=O)[C@@H]2CCCN2C(=O)[C@H]2CCCN2C(=O)[C@H](CCN)NC(=O)[C@H](CC(=O)O)NC(=O)[C@H](CCN)NC(=O)[C@H](CCN)NC(=O)[C@H](Cc2c[nH]c3ccccc23)NC(=O)[C@H](CCN)NC(=O)[C@H](CCN)NC(=O)[C@H](CCCCN)NC(=O)[C@H](CCN)NC1=O [Example 14] (cyclo(TWI[Dab]K[Dab][Dab]W[Dab][Dab]D[Dab][dP]P)) | 0.21 µg/mL (≈ 0.129 µM) | 12 µM | >1 µg/mL | 0.3% | 0.31 µg/mL (≈ 0.191 µM) | 0.65 µg/mL (≈ 0.4 µM) | 0.40 µg/mL (≈ 0.246 µM) | >2 µg/mL |
| CC[C@H](C)[C@@H]1NC(=O)[C@H](Cc2c[nH]c3ccccc23)NC(=O)[C@H]([C@@H](C)O)NC(=O)[C@@H]2CCCN2C(=O)[C@H]2CCCN2C(=O)[C@H](CCN)NC(=O)[C@H](C)NC(=O)[C@H](CCN)NC(=O)[C@H](CCN)NC(=O)[C@H](Cc2c[nH]c3ccccc23)NC(=O)[C@H](CCC(N)=O)NC(=O)[C@H](CCN)NC(=O)[C@H](CCCCN)NC(=O)[C@H](CCN)NC1=O [Example 39] (cyclo(TWI[Dab]K[Dab]QW[Dab][Dab]A[Dab][dP]P)) | 0.13 µg/mL (≈ 0.0808 µM) | 50 µM | 0.34 µg/mL | 0.4% | 0.31 µg/mL (≈ 0.193 µM) | 0.31 µg/mL (≈ 0.193 µM) | 0.21 µg/mL (≈ 0.131 µM) | 0.75 µg/mL (≈ 0.466 µM) |
